Patent US6916905B2, “Dmt-Tic di-and tri-peptidic derivatives and related compositions and methods of use” (The United States of America as represented by the …, priority 2000, dated 2005)
Entries after “also recorded” stand apart in the source; their conditions may differ. Where two headings read alike, the source gives them in different places. Non-standard residues stand in square brackets, D forms with d. Residues, ends and D or L forms follow the SMILES beside them. ξ: configuration not given here. *: point of attachment. Dmt = Cc1cc(O)cc(C)c1C[C@H](N)C(=O)O; ξDmt = Cc1cc(O)cc(C)c1CC(N)C(=O)O; Tic = O=C(O)[C@@H]1Cc2ccccc2CN1; NHNH2 = NN*

Experiments:
δ-opioid receptors [1] = biological target: T1, δ-opioid receptors (Rattus norvegicus, UniProt P33533); experiment: Rat brain synaptosome (P2) binding, δ antagonist [3H]N,N(CH3)2-Dmt-Tic-OH (Example 47); settings: for Antagonist K1μ/Kiδ: selectivity, Kiδ from antagonist radioligand [3H]N,N(CH3)2-Dmt-Tic-OH
T1 construct: assayed with a rat brain synaptosomal preparation (P2); from tissue; host or cells: rat brain P2 synaptosomes
T1 sequence (P33533 whole entry): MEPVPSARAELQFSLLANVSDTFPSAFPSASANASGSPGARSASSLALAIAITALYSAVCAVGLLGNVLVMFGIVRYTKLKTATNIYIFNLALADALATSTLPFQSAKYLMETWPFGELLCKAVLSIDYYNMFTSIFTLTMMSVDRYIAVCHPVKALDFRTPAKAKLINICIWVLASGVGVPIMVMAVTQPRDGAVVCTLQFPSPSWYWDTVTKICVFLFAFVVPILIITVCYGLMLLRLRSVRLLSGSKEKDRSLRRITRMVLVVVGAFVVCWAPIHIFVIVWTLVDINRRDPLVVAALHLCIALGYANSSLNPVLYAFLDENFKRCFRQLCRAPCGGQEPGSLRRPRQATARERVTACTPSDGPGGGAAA
Description: (§2) Briefly, the agonists [^3H]DPDPE (30-60 Ci/mmol, NEN-DuPont) and [^3H]DAGO (30-60 Ci/mmol, Amersham) were used to label δ and μ sites, respectively, under saturation binding conditions (2 hrs at 22° C.). Excess unlabeled peptide (2 μM) established non-specific binding levels and the labeled membranes were rapidly filtered on Whatman GF/C glass fibre filters, thoroughly washed, dried and measured for radioactivity using CytoScint (ICN, Irvine, Calif.). […] The affinity constants (Ki) were calculated according to Cheng and Prusoff (Biochem. Pharmacol. 22: 3099-3108 (1973)).

μ receptors = μ receptors (Cavia porcellus, UniProt P97266); experiment: Guinea pig ileum (GPI) functional bioassay (Example 48)
μ receptors, sequence (P97266 whole entry, looked up): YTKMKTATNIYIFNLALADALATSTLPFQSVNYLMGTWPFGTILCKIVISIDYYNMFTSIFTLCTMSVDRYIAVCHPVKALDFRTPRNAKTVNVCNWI
Description: (§1) The functional bioactivity of the present inventive compounds was assessed using standard functional bioassays of δ and μ activity in MVD and GPI (Salvadori et al. (1995), supra; and Salvadori et al., J. Med. Chem. 36: 3748-3756 (1993)). […] Dose-response curves were obtained (Salvadori et al. (1995), supra) for both tissues. […] Data were derived from at least four independent tissue samples and dose-response curves from which the pA2 values were determined (Salvadori et al. (1997), supra) according to Arunlakshana and Schild (Br. J. Pharmacol. 14: 48-58 (1959)).

δ-opioid receptors [2] = biological target: T1, δ-opioid receptors; experiment: Rat brain synaptosome (P2) binding, agonist [3H]DPDPE (Example 47); settings: for Agonist K1μ/Kiδ: selectivity, Kiδ from agonist radioligand [3H]DPDPE; for δ/μ selectivity, in words / δ affinity, in words: from Table II binding
Description: as §2

δ receptors = δ receptors (Mus musculus, UniProt P32300)
δ receptors, sequence (P32300 whole entry): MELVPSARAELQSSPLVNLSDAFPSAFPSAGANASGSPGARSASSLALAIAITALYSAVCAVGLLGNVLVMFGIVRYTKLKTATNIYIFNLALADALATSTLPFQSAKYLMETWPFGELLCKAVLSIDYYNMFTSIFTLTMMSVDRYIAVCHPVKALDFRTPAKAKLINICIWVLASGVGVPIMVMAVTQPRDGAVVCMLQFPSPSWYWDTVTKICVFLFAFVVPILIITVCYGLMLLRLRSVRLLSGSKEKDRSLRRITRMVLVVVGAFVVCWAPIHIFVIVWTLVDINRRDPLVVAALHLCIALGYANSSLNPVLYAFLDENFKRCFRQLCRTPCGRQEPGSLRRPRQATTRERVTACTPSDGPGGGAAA
Description: as §1

μ-opioid receptors = biological target: T2, μ-opioid receptors (Rattus norvegicus, UniProt P33535); experiment: Rat brain synaptosome (P2) binding, [3H]DAGO (Example 47)
T2 construct: assayed with a rat brain synaptosomal preparation (P2); from tissue; host or cells: rat brain P2 synaptosomes
T2 sequence (P33535 whole entry): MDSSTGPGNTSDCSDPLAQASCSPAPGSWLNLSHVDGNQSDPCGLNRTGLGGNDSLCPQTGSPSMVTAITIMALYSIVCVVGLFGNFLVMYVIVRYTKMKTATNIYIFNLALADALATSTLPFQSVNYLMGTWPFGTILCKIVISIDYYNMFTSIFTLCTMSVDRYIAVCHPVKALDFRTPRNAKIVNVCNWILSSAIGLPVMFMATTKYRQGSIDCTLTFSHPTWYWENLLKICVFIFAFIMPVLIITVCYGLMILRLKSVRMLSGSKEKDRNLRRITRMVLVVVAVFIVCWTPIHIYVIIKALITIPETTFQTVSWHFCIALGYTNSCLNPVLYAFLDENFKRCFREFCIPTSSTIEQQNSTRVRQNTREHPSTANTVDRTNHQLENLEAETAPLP

hMDR-1 = hMDR-1 (Homo sapiens, UniProt P08183); experiment: Calcein AM assay for Pgp in hMDR-1 transfected G-185 fibroblasts (Example 49); settings: calcein fluorescence
hMDR-1, sequence (P08183 whole entry): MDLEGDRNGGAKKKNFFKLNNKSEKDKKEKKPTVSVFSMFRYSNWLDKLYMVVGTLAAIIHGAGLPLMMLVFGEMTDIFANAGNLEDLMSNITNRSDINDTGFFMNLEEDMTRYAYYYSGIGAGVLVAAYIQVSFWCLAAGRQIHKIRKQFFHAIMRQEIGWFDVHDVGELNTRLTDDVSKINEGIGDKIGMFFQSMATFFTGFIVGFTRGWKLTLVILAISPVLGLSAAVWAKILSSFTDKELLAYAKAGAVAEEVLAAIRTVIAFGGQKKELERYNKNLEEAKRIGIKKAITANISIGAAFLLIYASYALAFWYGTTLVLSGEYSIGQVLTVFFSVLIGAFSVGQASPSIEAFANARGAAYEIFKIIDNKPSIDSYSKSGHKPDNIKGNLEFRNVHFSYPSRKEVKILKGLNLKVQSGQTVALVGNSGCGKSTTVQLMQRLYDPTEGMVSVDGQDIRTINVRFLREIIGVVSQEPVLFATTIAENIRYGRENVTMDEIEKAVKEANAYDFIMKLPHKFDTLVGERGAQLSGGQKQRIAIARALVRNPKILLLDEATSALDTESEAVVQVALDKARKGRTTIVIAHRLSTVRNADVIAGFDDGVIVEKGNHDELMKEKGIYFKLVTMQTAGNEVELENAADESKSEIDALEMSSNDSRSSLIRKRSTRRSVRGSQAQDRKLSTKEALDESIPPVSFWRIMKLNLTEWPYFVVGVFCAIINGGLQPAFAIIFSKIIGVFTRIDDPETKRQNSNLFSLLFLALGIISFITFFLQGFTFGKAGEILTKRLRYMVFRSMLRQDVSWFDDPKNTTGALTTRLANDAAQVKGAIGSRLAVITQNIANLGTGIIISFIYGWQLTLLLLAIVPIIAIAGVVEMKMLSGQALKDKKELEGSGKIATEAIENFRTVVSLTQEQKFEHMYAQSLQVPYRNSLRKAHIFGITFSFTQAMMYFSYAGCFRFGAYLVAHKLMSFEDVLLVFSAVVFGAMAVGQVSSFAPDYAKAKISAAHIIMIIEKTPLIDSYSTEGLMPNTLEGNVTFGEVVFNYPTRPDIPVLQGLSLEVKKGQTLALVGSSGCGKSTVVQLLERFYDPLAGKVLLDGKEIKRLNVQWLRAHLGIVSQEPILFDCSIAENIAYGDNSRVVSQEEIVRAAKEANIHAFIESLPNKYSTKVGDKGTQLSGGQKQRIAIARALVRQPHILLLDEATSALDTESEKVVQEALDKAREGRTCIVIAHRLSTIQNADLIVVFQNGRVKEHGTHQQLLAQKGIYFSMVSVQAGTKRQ
Description: Stably transfected G-185 fibroblasts containing hMDR-1 and NIH 3T3 cell lines were grown to confluent monolayers in DMEM containing 4.5 g glucose/1, 10% fetal calf serum, L-glutamine, penicillin (50 units/ml), streptomycin (50 μg/ml) and 1 mM sodium pyruvate in 5% CO2 at 37° C. G-185 cells were maintained in […] colchicine.
The assay for Pgp is based on the diffusion of non-fluorescent calcein AM across the cell membrane. Calcein AM is then hydrolyzed and accumulates as the fluorescent calcein. In transfected cells expressing excess hMDR-1, Pgp extrudes calcein AM from the cell before hydrolysis occurs; inhibition of hMDR-1 results in the accumulation of intracellular calcein. Transfected G-185 cells and the NIH 3T3 cells were analyzed in triplicate using seven graded dosages of verapamil or the opioid peptides in 96-well plates. Cells (2.5×10^6/well) were incubated in 100 μl culture medium for 15 min at 37° C. and 50 μl of 1 μM calcein AM in PBS, plus 50 μl of verapamil or one of the present inventive compounds in PBS, or 100 μl of PBS alone (control) were added. Cells were mixed and incubated for 15 min at 37° C., then centrifuged for 5 min at 2,000×g, and then washed three times in 200 μl PBS. Cell pellets were resuspended in 200 μl PBS and transferred to white Microfluor Plates (Nunc, Copenhagen, Denmark) in order to measure calcein-specific fluorescence (494 nm absorption; 517 nm emission). Internal controls were carried out with each experiment using verapamil and PBS in order to compare the consistency between cell preparations. Means±SE (error bars) were determined and plotted using Prism™ (GraphPad, San Diego, Calif.).

[3] = rat brain synaptosomes (P2), δ antagonist radioligand, mean ± SEM, n in parentheses, read-out: Kiδ(nM) [^3H]N,N(CH3)2-Dmt-Tic-OH
[4] = rat brain synaptosomes (P2), mean ± SEM, n in parentheses, read-out: Kiδ(nM) [^3H]DPDPE
[5] = MVD Ke(nM), δ antagonism, Ke = antilog of pA2
[6] = MVD pA2 (range), δ antagonism against deltorphin C, mean (range)
[7] = rat brain synaptosomes (P2), mean ± SEM, n in parentheses, read-out: Kiμ (nM) [^3H]DAGO
[8] = δ antagonism, Ke = antilog of pA2

Row | Structure (SMILES) | Ki (δ-opioid receptors [1]; [3]) | Antagonist K1μ/Kiδ (δ-opioid receptors [1]) | Ki (δ-opioid receptors [2]; [4]) | Agonist K1μ/Kiδ (δ-opioid receptors [2]) | bioactivity on MVD (δ), in words (δ receptors) | Ki (μ-opioid receptors; [7]) | also measured
1 | Cc1cc(O)cc(C)c1C[C@H](N)C(=O)N1Cc2ccccc2C[C@H]1CC(=O)O [Compound 1, H-Dmt-βTic-OH] | 0.71 ± 0.04 nM | 590 | 0.85 ± 0.2 nM | 498 | highest δ-antagonist functional bioactivities | 418 ± 86 nM | EC50 (μ receptors): > 10000 nM; Kb (δ receptors; [5]): 1.41 nM; Kb (δ receptors; [6]): 1.58 nM
2 | Cc1cc(O)cc(C)c1CC(CN)C(=O)N1Cc2ccccc2C[C@H]1C(=O)O (stereo partly drawn) [Compound 2, H-αDmt-Tic-OH] | 475 ± 37 nM | 4 | 11.2 ± 3.5 nM | 155 |  | 1740 ± 16 nM | 
3 | Cc1cc(O)cc(C)c1C[C@@H](C(=O)N1Cc2ccccc2C[C@H]1C(=O)O)N1CCCC1 [Compound 4, [des-NH2-α-pyrrolidine-1-yl]-Dmt-Tic-OH] | 1.42 ± 0.14 nM | 573 | 1.62 ± 0.19 nM | 502 | detrimental for all bioactivity measurements on MVD | 814 ± 65 nM | EC50 (μ receptors): > 10000 nM; Kb (δ receptors; [6]): 126 nM; MVD Ke (δ receptors; [8]): 121 nM
4 | Cc1cc(O)cc(C)c1C[C@@H](C(=O)N1Cc2ccccc2C[C@H]1C(=O)O)n1cccc1 [Compound 5, [des-NH2-α-pyrrole-1-yl]-Dmt-Tic-OH] | 9.94 ± 2.5 nM | 562 | 16.6 ± 2.5 nM | 338 | detrimental for all bioactivity measurements on MVD | 5590 ± 411 nM | MVD Ke (δ receptors; [8]): 408 nM
5 | Cc1cc(O)cc(C)c1C[C@H](N)C(=O)N1Cc2ccccc2C[C@H]1C(=O)NN [Compound 6, H-Dmt-Tic-NHNH2] (H-[Dmt]-[Tic]-NHNH2) | 42 ± 7.9 nM | 2 | 0.99 ± 0.04 nM | 86 |  | 85.1 ± 7.3 nM | δ/μ selectivity, in words (δ-opioid receptors [2]): essentially nonselective
6 | COC(=O)[C@@H]1Cc2ccccc2CN1C(=O)[C@@H](N)Cc1c(C)cc(O)cc1C [Compound 8, H-Dmt-Tic-OMe] (H-[Dmt]-[Tic]-OMe) | 500 ± 90 nM | 0.8 | 9.64 ± 2.2 nM | 44 |  | 423 ± 25 nM | δ affinity, in words (δ-opioid receptors [2]): lost high δ affinity; δ/μ selectivity, in words (δ-opioid receptors [2]): weakly μ selective
7 | Cc1cc(O)cc(C)c1C[C@H](N)C(=O)N1Cc2ccccc2C[C@H]1C(=O)Nc1nnn[nH]1 [Compound 10, H-Dmt-Tic-NH-tetrazole-5-yl] | 9.75 ± 1.73 nM | 4 | 0.7 ± 0.03 nM | 53 | weak δ antagonist | 37 ± 4.5 nM | bioactivity on GPI (μ), in words (μ receptors): very minimal activity on GPI; δ/μ selectivity, in words (δ-opioid receptors [2]): essentially nonselective; MVD Ke (δ receptors; [8]): 36.3 nM
8 | Cc1cc(O)cc(C)c1C[C@H](N)C(=O)N1Cc2ccccc2C[C@@H]1C(=O)NC12CC3CC(CC(C3)C1)C2 [Compound 12, H-Dmt-D-Tic-NH-1-adamantane] |  | 0.004 |  | 0.01 |  |  | Ki (δ-opioid receptors [1]): 70.3 ± 7.25 nM; EC50 (μ receptors): 1680 nM; bioactivity on GPI (μ), in words (μ receptors): μM activity on GPI; Ki (δ-opioid receptors [2]): 24.5 ± 4.9 nM; δ affinity, in words (δ-opioid receptors [2]): lost high δ affinity; δ/μ selectivity, in words (δ-opioid receptors [2]): moderately μ selective; Kb (δ receptors; [5]): > 10000 nM; Ki (μ-opioid receptors): 0.26 ± 0.08 nM
9 | CNC(=O)[C@@H]1Cc2ccccc2CN1C(=O)[C@H](Cc1c(C)cc(O)cc1C)N(C)C [Compound 13, N,N(Me)2-Dmt-Tic-NHMe] | 0.28 ± 0.02 nM | 1268 | 0.54 ± 0.07 nM | 669 |  | 359 ± 62 nM | bioactivity on GPI (μ), in words (μ receptors): weak μ antagonist; EC50 (μ receptors; μ agonism, read-out: GPI ED50): > 10000 nM; GPI Ke (μ receptors; μ antagonism): 0.39 µM; Kb (μ receptors; μ antagonism, mean (range), read-out: GPI pA2 (range) (converted)): 389 nM; Kb (δ receptors; [6]): 0.407 nM; MVD Ke (δ receptors; [8]): 0.41 nM
10 | Cc1cc(O)cc(C)c1C[C@@H](C(=O)N1Cc2ccccc2C[C@@H]1C(=O)NC12CC3CC(CC(C3)C1)C2)N(C)C [Compound 16, N,N(Me)2-Dmt-D-Tic-NH-1-adamantane] |  | 0.42 |  | 0.36 | greatly reduced bioactivity on MVD |  | Ki (δ-opioid receptors [1]): 120 ± 25.9 nM; EC50 (μ receptors): 4480 nM; bioactivity on GPI (μ), in words (μ receptors): μM activity on GPI; Ki (δ-opioid receptors [2]): 140 ± 30 nM; δ affinity, in words (δ-opioid receptors [2]): lost high δ affinity; δ/μ selectivity, in words (δ-opioid receptors [2]): weakly μ selective; Kb (δ receptors; [6]): 123 nM; MVD Ke (δ receptors; [8]): 128 nM; Ki (μ-opioid receptors): 50.5 ± 2.6 nM
11 | CCN(CC)[C@@H](Cc1c(C)cc(O)cc1C)C(=O)N1Cc2ccccc2C[C@H]1C(=O)O [Compound 17, N,N(Et)2-DMT-Tic-OH] |  |  |  | 35.3 ± 1.96 (3-5) |  |  | Ki (δ-opioid receptors [2]): 0.92 ± 0.19 nM
12 | CNC(=O)[C@H](C)NC(=O)[C@@H]1Cc2ccccc2CN1C(=O)[C@@H](N)Cc1c(C)cc(O)cc1C [Compound 18, H-Dmt-Tic-Ala-NHMe] (H-[Dmt]-[Tic]-Ala-NHMe) | 0.12 ± 0.04 nM | 47 | 0.058 ± 0.01 nM | 100 | very weak δ and μ agonism | 5.75 ± 0.72 nM | EC50 (μ receptors): 290 nM; bioactivity on GPI (μ), in words (μ receptors): very weak δ and μ agonism; EC50 (δ receptors): 1290 nM
13 | COC(=O)[C@H](C)NC(=O)[C@@H]1Cc2ccccc2CN1C(=O)[C@@H](N)Cc1c(C)cc(O)cc1C [Compound 19, H-Dmt-Tic-Ala-OMe] (H-[Dmt]-[Tic]-Ala-OMe) | 0.14 ± 0.04 nM | 83 | 0.23 ± 0.09 nM | 48 |  | 11.3 ± 1.87 nM | 
14 | C[C@@H](NC(=O)[C@@H](N)Cc1ccc(O)cc1)C(=O)NCC(=O)N(C)[C@@H](Cc1ccccc1)C(=O)NCCO [DAGO, H-Tyr-D-Ala-Gly-N-MePhe-Gly-ol] |  |  |  |  |  |  | inhibition of hMDR-1 (Pgp), in words (hMDR-1): inactive; also recorded: lack of inhibition
15 | Cc1cc(O)cc(C[C@H](N)C(=O)N[C@H](Cc2ccccc2)C(=O)NCC(=O)N[C@H](C(=O)N[C@H](C(N)=O)C(C)C)C(C)C)c1C [DPD, H-Dmt-D-Phe-Gly-Val-Val-NH2] |  |  |  |  |  |  | inhibition of hMDR-1 (Pgp), in words (hMDR-1): inactive
16 | CC1(C)SSC(C)(C)[C@@H](NC(=O)[C@@H](N)Cc2ccc(O)cc2)C(=O)NCC(=O)N[C@@H](Cc2ccccc2)C(=O)N[C@H]1C(=O)O [DPDPE, H-Tyr-[D-Pen-Gly-Phe-D-Pen] enkephalin] |  |  |  |  |  |  | inhibition of hMDR-1 (Pgp), in words (hMDR-1): inactive; also recorded: lack of inhibition
17 | Cc1cc(O)cc(C)c1CC(N)C(=O)N1Cc2ccccc2C[C@H]1C(=O)O (stereo partly drawn) [H-(R,S)Dmt-Tic-OH, reference compound] (H-[ξDmt]-[Tic]-OH) |  |  |  |  |  | 1160 ± 327 nM | EC50 (μ receptors; μ agonism, read-out: GPI ED50): > 10000 nM; Kb (δ receptors): 6.76 nM
18 | C[C@@H](NC(=O)[C@@H](N)Cc1ccc(O)cc1)C(=O)N[C@@H](Cc1ccccc1)C(=O)N[C@@H](Cc1c[nH]c2ccccc12)C(=O)N[C@@H](Cc1ccc(O)cc1)C(=O)N1CCC[C@H]1C(=O)N[C@@H](CCCCN)C(=O)O [[Trp^4,Lys-OH^7]DER, H-Tyr-D-Ala-Phe-Trp-Tyr-Pro-Lys-OH] (H-Y[dA]FWYPK-OH) |  |  |  |  |  |  | inhibition of hMDR-1 (Pgp), in words (hMDR-1): inactive
19 | C[C@@H](NC(=O)[C@@H](N)Cc1ccc(O)cc1)C(=O)N[C@@H](Cc1ccccc1)C(=O)N[C@@H](Cc1c[nH]c2ccccc12)C(=O)N[C@@H](Cc1ccc(O)cc1)C(N)=O [[Trp^4,Tyr^5]DER, H-Tyr-D-Ala-Phe-Trp-Tyr-NH2] (H-Y[dA]FWY-NH2) |  |  |  |  |  |  | inhibition of hMDR-1 (Pgp), in words (hMDR-1): inactive
